Data reported in ChEMBL document CHEMBL1150976, “The selectivity of protein kinase inhibitors: a further update” (Biochem J, 2007).

Tests used:
[1] = target: Dual specificity tyrosine-phosphorylation-regulated kinase 1A (Homo sapiens) (UniProt Q13627); test: Percentage DYRK1A activity remaining in the presence of 2uM inhibitor; details: filed as antagonist
[2] = target: Serine/threonine-protein kinase pim-3 (Homo sapiens, UniProt Q86V86); test: Percentage PIM3 activity remaining in the presence of 2uM inhibitor; details: filed as antagonist
[3] = species on record: Rattus norvegicus; test: Percentage AMPK activity remaining in the presence of 2uM inhibitor
[4] = target: T1, Inhibitor of nuclear factor kappa-B kinase subunit beta (Homo sapiens) (UniProt O14920); test: Percentage IKK-beta activity remaining in the presence of 2uM inhibitor
T1 sequence (whole entry): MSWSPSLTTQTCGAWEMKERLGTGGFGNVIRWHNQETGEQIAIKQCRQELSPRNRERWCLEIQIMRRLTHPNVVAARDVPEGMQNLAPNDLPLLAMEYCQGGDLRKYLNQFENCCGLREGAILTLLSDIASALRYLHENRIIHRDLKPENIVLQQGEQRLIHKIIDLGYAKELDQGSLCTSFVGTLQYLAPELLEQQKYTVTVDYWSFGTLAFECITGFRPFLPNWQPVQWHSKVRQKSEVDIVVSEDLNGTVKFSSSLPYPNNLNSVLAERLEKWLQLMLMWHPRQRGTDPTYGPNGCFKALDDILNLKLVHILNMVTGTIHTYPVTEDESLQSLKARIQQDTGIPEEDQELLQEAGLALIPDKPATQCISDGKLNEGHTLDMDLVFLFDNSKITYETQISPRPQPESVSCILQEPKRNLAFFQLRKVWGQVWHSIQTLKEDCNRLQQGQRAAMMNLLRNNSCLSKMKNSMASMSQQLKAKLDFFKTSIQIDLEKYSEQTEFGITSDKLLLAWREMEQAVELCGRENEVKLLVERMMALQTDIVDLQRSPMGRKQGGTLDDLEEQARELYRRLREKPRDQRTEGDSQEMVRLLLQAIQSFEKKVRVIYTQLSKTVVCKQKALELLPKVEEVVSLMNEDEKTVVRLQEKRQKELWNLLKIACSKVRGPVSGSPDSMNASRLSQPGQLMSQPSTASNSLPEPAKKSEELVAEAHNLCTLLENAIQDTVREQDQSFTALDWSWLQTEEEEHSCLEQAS

[5] = target: Myosin light chain kinase, smooth muscle (Homo sapiens, UniProt Q15746); test: Percentage SmMLCK activity remaining in the presence of 3uM inhibitor
[6] = target: T2, Dual specificity tyrosine-phosphorylation-regulated kinase 3 (Homo sapiens) (UniProt O43781); test: Percentage DYRK3 activity remaining in the presence of 3uM inhibitor
T2 sequence (whole entry): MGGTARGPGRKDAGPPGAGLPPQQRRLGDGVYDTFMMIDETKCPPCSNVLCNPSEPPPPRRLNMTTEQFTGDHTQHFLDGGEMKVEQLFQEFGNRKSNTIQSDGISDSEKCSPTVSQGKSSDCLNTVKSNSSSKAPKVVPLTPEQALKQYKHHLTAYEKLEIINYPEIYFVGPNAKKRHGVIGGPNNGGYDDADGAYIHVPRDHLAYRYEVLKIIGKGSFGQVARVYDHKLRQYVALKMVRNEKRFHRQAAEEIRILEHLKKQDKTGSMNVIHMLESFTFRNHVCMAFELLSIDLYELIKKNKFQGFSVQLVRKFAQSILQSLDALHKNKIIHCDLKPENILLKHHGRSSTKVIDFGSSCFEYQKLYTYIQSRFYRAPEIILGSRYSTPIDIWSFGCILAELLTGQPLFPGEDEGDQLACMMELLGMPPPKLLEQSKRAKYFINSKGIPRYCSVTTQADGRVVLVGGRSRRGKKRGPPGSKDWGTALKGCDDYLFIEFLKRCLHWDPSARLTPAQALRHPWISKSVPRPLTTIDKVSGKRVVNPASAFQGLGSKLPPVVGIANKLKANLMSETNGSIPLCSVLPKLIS

[7] = target: T3, 3-phosphoinositide-dependent protein kinase 1 (Homo sapiens) (UniProt O15530); test: Percentage PDK1 activity remaining in the presence of 3uM inhibitor
T3 sequence (whole entry): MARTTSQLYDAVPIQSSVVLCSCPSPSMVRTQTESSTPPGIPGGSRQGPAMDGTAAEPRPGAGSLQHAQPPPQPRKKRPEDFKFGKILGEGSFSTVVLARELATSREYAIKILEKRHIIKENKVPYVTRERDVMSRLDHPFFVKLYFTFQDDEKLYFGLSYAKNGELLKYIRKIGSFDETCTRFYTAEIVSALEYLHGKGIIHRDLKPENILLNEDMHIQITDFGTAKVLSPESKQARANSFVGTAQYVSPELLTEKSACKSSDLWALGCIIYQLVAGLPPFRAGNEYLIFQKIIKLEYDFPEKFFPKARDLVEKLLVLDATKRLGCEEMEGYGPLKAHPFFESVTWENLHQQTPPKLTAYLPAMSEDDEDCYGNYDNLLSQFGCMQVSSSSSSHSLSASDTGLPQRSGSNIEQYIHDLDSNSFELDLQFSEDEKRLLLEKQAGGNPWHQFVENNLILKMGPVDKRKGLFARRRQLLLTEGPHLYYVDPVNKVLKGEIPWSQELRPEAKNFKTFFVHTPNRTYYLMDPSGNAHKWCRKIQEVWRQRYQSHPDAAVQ

[8] = target: T4, Mitogen-activated protein kinase 12 (Homo sapiens) (UniProt P53778); test: Percentage p38-gamma activity remaining in the presence of 3uM inhibitor
T4 sequence (whole entry): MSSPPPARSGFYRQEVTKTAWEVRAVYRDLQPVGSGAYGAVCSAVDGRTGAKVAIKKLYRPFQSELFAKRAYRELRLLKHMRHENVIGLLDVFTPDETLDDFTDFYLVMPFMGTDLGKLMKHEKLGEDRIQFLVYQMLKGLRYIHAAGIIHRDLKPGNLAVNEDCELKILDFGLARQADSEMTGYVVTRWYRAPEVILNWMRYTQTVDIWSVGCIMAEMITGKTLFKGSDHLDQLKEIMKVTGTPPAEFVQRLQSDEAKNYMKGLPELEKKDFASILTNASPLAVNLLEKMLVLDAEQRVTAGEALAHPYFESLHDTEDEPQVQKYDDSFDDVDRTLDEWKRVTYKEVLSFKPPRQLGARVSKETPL

[9] = target: T5, Aurora kinase C (Homo sapiens) (UniProt Q9UQB9); test: Percentage Aurora C activity remaining in the presence of 3uM inhibitor
T5 sequence (whole entry): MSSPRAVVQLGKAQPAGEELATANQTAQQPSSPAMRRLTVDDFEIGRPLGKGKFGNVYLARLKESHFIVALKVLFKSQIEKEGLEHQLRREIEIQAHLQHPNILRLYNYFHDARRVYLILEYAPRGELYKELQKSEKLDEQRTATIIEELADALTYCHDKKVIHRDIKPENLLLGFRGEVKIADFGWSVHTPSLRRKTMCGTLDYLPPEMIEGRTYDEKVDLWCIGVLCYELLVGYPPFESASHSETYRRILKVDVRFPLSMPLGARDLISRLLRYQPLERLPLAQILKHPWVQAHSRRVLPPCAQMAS

[10] = target: Serine/threonine-protein kinase Chk2 (Homo sapiens) (UniProt O96017); test: Percentage CHK2 activity remaining in the presence of 3uM inhibitor
Sequence of Serine/threonine-protein kinase Chk2 (Homo sapiens) (O96017 whole entry): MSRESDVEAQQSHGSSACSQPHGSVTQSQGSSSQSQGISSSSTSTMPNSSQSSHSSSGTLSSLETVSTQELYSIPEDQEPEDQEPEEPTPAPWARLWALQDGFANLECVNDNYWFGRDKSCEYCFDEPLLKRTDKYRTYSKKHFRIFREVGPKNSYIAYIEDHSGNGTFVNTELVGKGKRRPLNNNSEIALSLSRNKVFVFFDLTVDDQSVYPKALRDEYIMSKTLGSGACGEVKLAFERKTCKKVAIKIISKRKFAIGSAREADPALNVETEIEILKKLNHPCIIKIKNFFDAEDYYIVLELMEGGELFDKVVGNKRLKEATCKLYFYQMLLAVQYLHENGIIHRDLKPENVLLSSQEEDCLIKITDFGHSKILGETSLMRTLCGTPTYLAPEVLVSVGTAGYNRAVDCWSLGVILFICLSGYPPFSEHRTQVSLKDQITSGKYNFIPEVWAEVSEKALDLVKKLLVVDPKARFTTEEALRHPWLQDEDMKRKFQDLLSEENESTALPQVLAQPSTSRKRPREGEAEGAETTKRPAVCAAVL

Sequence of Myosin light chain kinase, smooth muscle (Q15746 whole entry): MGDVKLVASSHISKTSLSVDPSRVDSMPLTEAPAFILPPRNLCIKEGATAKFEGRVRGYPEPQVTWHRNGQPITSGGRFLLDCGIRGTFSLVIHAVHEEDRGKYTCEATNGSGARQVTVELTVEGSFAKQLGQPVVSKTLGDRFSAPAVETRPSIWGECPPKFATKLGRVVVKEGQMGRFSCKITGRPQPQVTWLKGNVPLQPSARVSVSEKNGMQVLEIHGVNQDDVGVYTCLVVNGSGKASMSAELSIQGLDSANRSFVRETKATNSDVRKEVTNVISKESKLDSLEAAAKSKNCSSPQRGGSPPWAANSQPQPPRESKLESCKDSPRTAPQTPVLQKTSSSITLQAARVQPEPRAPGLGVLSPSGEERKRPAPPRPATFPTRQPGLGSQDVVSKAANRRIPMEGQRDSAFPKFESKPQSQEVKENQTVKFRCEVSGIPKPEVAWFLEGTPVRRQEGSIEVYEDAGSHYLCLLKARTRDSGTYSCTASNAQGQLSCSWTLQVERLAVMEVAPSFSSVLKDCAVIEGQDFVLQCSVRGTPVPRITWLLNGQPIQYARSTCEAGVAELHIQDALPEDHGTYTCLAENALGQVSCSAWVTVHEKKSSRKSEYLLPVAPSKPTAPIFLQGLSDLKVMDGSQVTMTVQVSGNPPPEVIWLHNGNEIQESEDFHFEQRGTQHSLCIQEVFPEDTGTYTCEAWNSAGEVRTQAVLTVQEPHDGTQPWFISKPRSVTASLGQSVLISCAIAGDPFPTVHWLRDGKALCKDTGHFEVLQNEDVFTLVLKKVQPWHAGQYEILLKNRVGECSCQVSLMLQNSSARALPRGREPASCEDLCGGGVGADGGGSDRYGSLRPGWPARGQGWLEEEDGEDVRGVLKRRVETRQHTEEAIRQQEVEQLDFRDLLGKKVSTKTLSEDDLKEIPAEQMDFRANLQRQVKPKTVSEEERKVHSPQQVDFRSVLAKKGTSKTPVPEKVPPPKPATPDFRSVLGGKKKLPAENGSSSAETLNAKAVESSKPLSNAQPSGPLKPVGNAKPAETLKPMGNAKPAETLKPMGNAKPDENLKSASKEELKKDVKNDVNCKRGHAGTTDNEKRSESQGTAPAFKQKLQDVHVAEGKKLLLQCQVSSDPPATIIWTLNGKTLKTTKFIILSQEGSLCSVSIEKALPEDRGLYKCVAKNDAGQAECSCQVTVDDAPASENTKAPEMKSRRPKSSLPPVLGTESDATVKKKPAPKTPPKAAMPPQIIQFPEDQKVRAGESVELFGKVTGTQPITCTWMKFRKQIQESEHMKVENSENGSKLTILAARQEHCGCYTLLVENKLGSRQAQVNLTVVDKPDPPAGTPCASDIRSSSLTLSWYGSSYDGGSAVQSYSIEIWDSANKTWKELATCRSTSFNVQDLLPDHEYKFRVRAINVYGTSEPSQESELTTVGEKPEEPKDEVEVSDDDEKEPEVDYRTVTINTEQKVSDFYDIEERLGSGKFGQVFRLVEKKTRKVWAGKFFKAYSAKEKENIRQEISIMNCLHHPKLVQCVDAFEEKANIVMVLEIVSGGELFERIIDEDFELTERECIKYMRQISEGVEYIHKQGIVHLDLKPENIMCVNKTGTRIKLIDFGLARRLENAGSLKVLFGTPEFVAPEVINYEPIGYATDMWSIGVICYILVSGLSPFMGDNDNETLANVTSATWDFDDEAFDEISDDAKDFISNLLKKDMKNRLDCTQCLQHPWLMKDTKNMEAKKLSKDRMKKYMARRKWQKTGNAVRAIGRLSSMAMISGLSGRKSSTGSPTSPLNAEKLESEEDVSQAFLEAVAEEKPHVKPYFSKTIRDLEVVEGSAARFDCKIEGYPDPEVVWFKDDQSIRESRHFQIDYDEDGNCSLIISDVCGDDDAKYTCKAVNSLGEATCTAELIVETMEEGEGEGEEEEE

Activity [1]	Activity [2]	Activity [3]	Activity [4]	Activity [5]	Activity [6]	Activity [7]	Activity [8]	Activity [9]	Activity [10]	SMILES
8%	29%	67%	99%							Cn1cc(C2=C(c3ccc(Cl)cc3Cl)C(=O)NC2=O)c2ccccc21
				82%	68%	89%	92%	75%	81%	Cc1ccc(-c2c(C(=O)CF)n(CCCO)c3ncnc(N)c23)cc1
